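Method: 48-hour compound exposure of cells in 96-well plates, five concentrations, linear interpolation of endpoints. GI50 = concentration required for 50% inhibition of growth.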 Active and inactive are the calls of the source. Cut-off read from the data, not from the text of the source: active = GI50 up to about 1.1 µM and inactive = higher.
How the values were obtained:
Test in all cases: NCI anticancer screen, dose series, 48 h
786-0 = tested on: 786-0
A498 = tested on: A498
ACHN = tested on: ACHN
CCRF-CEM = tested on: CCRF-CEM
COLO 205 = tested on: COLO 205
HCC 2998 = tested on: HCC 2998
HCT-116 = tested on: HCT-116
HOP-92 = tested on: HOP-92
Malme-3M = tested on: Malme-3M
NCI-H23 = tested on: NCI-H23
SK-MEL-2 = tested on: SK-MEL-2
U-251 = tested on: U-251
UACC-257 = tested on: UACC-257
M14 = tested on: M14
NCI-H226 = tested on: NCI-H226
SN12C = tested on: SN12C
UACC-62 = tested on: UACC-62

Measured: GI50

COc1cccc2c1OC1Sc3ccccc3-c3nn(-c4ccccc4)c-2c31 (stereo not given)
inactive: 786-0 > 100 µM | A498 > 100 µM | ACHN > 100 µM | CCRF-CEM > 100 µM | COLO 205 > 100 µM | HCC 2998 > 100 µM | HCT-116 > 100 µM | HOP-92 > 100 µM | Malme-3M > 100 µM | NCI-H23 > 100 µM | SK-MEL-2 > 100 µM | U-251 > 100 µM | UACC-257 > 100 µM

CC1=C(c2cc(C(=O)Nc3nccs3)nc(NC#N)n2)Sc2ccccc2N1
inactive: 786-0 > 100 µM | A498 > 100 µM | ACHN > 100 µM | CCRF-CEM 79.1 µM | COLO 205 > 100 µM | HCT-116 > 100 µM | HOP-92 > 100 µM | M14 > 100 µM | Malme-3M > 100 µM | NCI-H226 > 100 µM | NCI-H23 > 100 µM | SK-MEL-2 > 100 µM | SN12C > 100 µM | U-251 > 100 µM | UACC-257 > 100 µM | UACC-62 > 100 µM

O=C(CSc1nnc(Cc2ccccc2)o1)Nc1cccc(Cl)c1
inactive: 786-0 96.8 µM | A498 > 100 µM | ACHN 46.9 µM | CCRF-CEM 71 µM | COLO 205 > 100 µM | HCC 2998 96.6 µM | HCT-116 > 100 µM | M14 69 µM | Malme-3M 63.7 µM | NCI-H226 > 100 µM | NCI-H23 66.2 µM | SK-MEL-2 70.8 µM | SN12C 97.1 µM | U-251 > 100 µM | UACC-257 > 100 µM

COc1ccc2c(c1)[n+]([O-])c(-c1ccccc1)c(N)[n+]2[O-]
inactive: 786-0 63.2 µM | A498 69.3 µM | ACHN 52.6 µM | CCRF-CEM 53 µM | COLO 205 20.4 µM | HCC 2998 54 µM | M14 29.4 µM | Malme-3M 20.9 µM | NCI-H226 > 100 µM | NCI-H23 23.9 µM | SK-MEL-2 46 µM | SN12C 51.8 µM | U-251 31.3 µM | UACC-257 21.2 µM | UACC-62 30.3 µM

Nc1ccc2ncc(Nc3ccc(Cl)c(Cl)c3)nc2c1
inactive: 786-0 39.6 µM | ACHN 16.9 µM | CCRF-CEM 19.7 µM | COLO 205 16.7 µM | HCC 2998 17.6 µM | HCT-116 21.2 µM | HOP-92 13.6 µM | M14 19.4 µM | Malme-3M 23.1 µM | NCI-H226 20.8 µM | NCI-H23 18.7 µM | SK-MEL-2 26.4 µM | SN12C 36.4 µM | U-251 33.7 µM | UACC-257 19.4 µM | UACC-62 20.2 µM

O=C(CSc1nnc(-c2ccc(/N=C\c3ccc(Cl)cc3)cc2)o1)Nc1ccccc1Cl
inactive: 786-0 > 100 µM | ACHN > 100 µM | CCRF-CEM > 100 µM | COLO 205 > 100 µM | HCT-116 > 100 µM | M14 > 100 µM | Malme-3M > 100 µM | NCI-H226 > 100 µM | NCI-H23 > 100 µM | SK-MEL-2 > 100 µM | SN12C > 10 µM | U-251 > 100 µM | UACC-257 20.7 µM | UACC-62 > 100 µM

Fc1ccccc1C1CC(C(c2ccccc2)c2ccccc2)=Nc2ccccc2S1 (stereo not given)
inactive: 786-0 4.23 µM | A498 6.53 µM | ACHN 11.7 µM | CCRF-CEM 1.91 µM | COLO 205 14.8 µM | HCC 2998 5.35 µM | M14 11.9 µM | Malme-3M 16 µM | NCI-H226 13 µM | NCI-H23 5.89 µM | SK-MEL-2 7.89 µM | SN12C 10.2 µM | U-251 12.6 µM | UACC-257 12.9 µM | UACC-62 3.27 µM

NC(=O)NNC/C(Cl)=C(\Cl)C(=O)O
inactive: 786-0 > 100 µM | A498 > 100 µM | ACHN > 100 µM | CCRF-CEM > 100 µM | COLO 205 > 100 µM | HCC 2998 > 100 µM | HCT-116 > 100 µM | M14 > 100 µM | Malme-3M > 100 µM | NCI-H226 > 50 µM | NCI-H23 > 100 µM | SK-MEL-2 > 100 µM | SN12C > 100 µM | U-251 > 100 µM | UACC-257 > 82.6 µM | UACC-62 > 100 µM

O=NN1CCN=C1c1ccc([N+](=O)[O-])cc1
inactive: 786-0 > 100 µM | ACHN > 100 µM | COLO 205 > 100 µM | HCC 2998 > 100 µM | HCT-116 > 100 µM | HOP-92 > 100 µM | M14 > 100 µM | Malme-3M > 100 µM | NCI-H226 > 100 µM | NCI-H23 > 100 µM | SN12C > 100 µM | U-251 > 100 µM | UACC-257 > 100 µM | UACC-62 > 100 µM

CCCCCCCCCCCCNC(=S)OCCCC
inactive: 786-0 > 100 µM | A498 > 100 µM | ACHN > 100 µM | CCRF-CEM 29.4 µM | HCC 2998 > 100 µM | HCT-116 50.7 µM | HOP-92 > 100 µM | M14 > 100 µM | Malme-3M > 100 µM | NCI-H23 > 100 µM | SK-MEL-2 17.2 µM | SN12C 59.2 µM | U-251 63.7 µM | UACC-257 35.7 µM | UACC-62 > 100 µM

COc1cc2c(cc1OC)/C(=C\c1ccccc1N)C(=O)OC2
inactive: 786-0 3.07 µM | ACHN 18.3 µM | CCRF-CEM 2.05 µM | COLO 205 12 µM | HCC 2998 23.3 µM | HOP-92 12.4 µM | M14 19.3 µM | Malme-3M 13.9 µM | NCI-H23 16.1 µM | SK-MEL-2 12.1 µM | SN12C 13.2 µM | U-251 18.5 µM | UACC-257 15.1 µM | UACC-62 16.3 µM

O=C(NNC(=O)c1cc(/C=C/c2cccc([N+](=O)[O-])c2)nc(S)n1)Nc1ccc(Cl)cc1
inactive: 786-0 47.8 µM | A498 > 100 µM | ACHN > 100 µM | CCRF-CEM 20.6 µM | COLO 205 18.4 µM | HCC 2998 > 100 µM | HCT-116 27.2 µM | M14 93.8 µM | Malme-3M > 100 µM | NCI-H226 > 100 µM | NCI-H23 77.4 µM | SK-MEL-2 > 100 µM | SN12C > 100 µM | U-251 14.8 µM | UACC-257 91 µM | UACC-62 50.6 µM

COC(=O)C1=CC2OC13CC1CCC3(C2=O)C1(C)C (stereo not given)
inactive: 786-0 12.2 µM | A498 19.1 µM | ACHN 8.83 µM | CCRF-CEM 3.25 µM | COLO 205 15.5 µM | HCC 2998 14.5 µM | HCT-116 11.4 µM | M14 5.28 µM | Malme-3M 8.07 µM | NCI-H226 17.1 µM | NCI-H23 16 µM | SK-MEL-2 15.2 µM | SN12C 12.7 µM | U-251 12.9 µM | UACC-257 10.4 µM | UACC-62 16.3 µM
